Data published in patent US20260265267A1, “NOVEL COMPOUNDS WITH MTORC2-INHIBITORY ACTIVITY AND USES THEREOF” (Aliad Biopharma, priority 2023, published 2026).

Columns and labels:
[1] = tested on: mTORC2; experiment: mTORC2 inhibitory activity in primary cultured cerebral neurons (Akt Ser473 phosphorylation); assay type: cell-based, SD mice; conditions: for effect on Akt Ser473 phosphorylation / decrease in AKT Ser473 phosphorylation at 24 hours: 500 nM or 100 nM; for effect on Akt Ser473 phosphorylation / pSer473-AKT/AKT (% control): 24 hours; for pSer473-AKT/AKT (% control): 500 nM
Procedure: Specifically, primary neural cells were cultured from the cerebral cortex of E16 embryos of SD mice with a gestational age 16-day (Orient Bio). The extracted brain was separated into the left and right hemispheres, the meninges were removed, and the brains were treated with trypsin in Ca^2+/Mg^2+-free HBSS solution.
The time-dependent changes in Akt Ser473 phosphorylation, Akt Thr308 phosphorylation, and LC3-II levels were measured by Western blot analysis.

[2] = tested on: 5×FAD Alzheimer's disease model mice; experiment: Passive avoidance test in 5×FAD mice (long-term memory); assay type: in vivo
Procedure: (§1) In order to evaluate the efficacy of HN2210, HN2213, and HN2313 on Alzheimer's disease-related symptoms, specifically regarding 1) memory and cognitive impairment, 2) amyloid plaques, 3) neurofibrillary tangles (NFTs), and 4) brain inflammation, an in vivo efficacy assessment of HN2210, HN2213 and HN2313 was conducted using 5×FAD Alzheimer's disease model mice. The 5×FAD mice were purchased from Jackson Lab, USA (Cat #034840-JAX) and crossed once with C57bl6 mice to produce F1 heterozygous offspring (Het). The compound was administered via intraperitoneal injection to 6-month-old 5×FAD Het mice, followed by behavioral testing. The normal control mice, which were littermates of the 5×FAD Het mice, were aged to 6 months and received DMSO injection at the same volume.
Specifically, to mice trained to avoid bright light three times daily, an electric foot shock (1 mA, 300 g) was applied for 3 seconds in a dark room at the same time on the next day. After 24 hours, the mice were placed again in the same room, and the avoidance response by light, that is, the time taken to move from the bright room to the dark room was measured. At 24 hours after habituation training, the mice were placed back into the bright room, and the latency time for entering the dark room was recorded over a period of 720 seconds.

[3] = tested on: 5×FAD Alzheimer's disease model mice; experiment: Morris water maze test in 5×FAD mice (spatial perceptive ability); assay type: in vivo; conditions: for Morris water maze time spent swimming in the target quadrant, % of the normal control level / Morris water maze time spent swimming in the target quadrant, increase compared to 5×FAD-DMSO mice: 14 days (FIG. 8c); for Morris water maze time spent in the target quadrant, % of the normal control level / Morris water maze time spent in the target quadrant, increase compared to 5×FAD-DMSO mice: 14 days (FIG. 6b)
Procedure: as §1
Specifically, a 50 cm deep water tank filled with water (25.0±1.0° C.) was divided into four equal quadrants, and a platform (12 cm diameter) was placed 3 mm below the water surface in the center of one quadrant. The training test consisted of a 1-minute free swimming practice without the platform foothold on the first day and a four days of training, during which the animal used environmental cues to locate the hidden platform foothold, with four trials per day. The following day, the platform was removed, and the time the experimental animal spent in the target quadrant was measured (probe trial). Videos were recorded and analyzed using the Ethovision video tracking system (Noldus Information Technology, Wageningen, Netherlands). The data included the time spent swimming in the target quadrant and the number of crossings over the virtual platform's previous position.

[4] = tested on: activated microglia in the brain of 5×FAD mice; experiment: Anti-inflammatory effect in the brain of 5×FAD mice (IBA-1 antibody staining); assay type: in vivo; conditions: 5 mg/kg, 14 days
Procedure: as §1
In order to assess the anti-inflammatory effect of HN2210, HN2213, and HN2313 compounds in the brains of Alzheimer's disease model mice, the following test was conducted using 5×FAD-DMSO mice without compound treatment, 5×FAD mice treated with HN2210, HN2213, or HN2313 compounds, and normal mice as controls. Specifically, brain inflammation is mediated by the activation of microglia, which can be stained using the IBA-1 antibody. Therefore, inflammation in the hippocampus of 5×FAD mouse can be assessed using immunostaining with the IBA-1 antibody. Brain slices were double-stained with the IBA-1 antibody and DAPI to label nuclei, and the dentate gyrus region of the hippocampus was observed under a confocal scanning microscope.

[5] = tested on: tau aggregates in the brain of 5×FAD mice; experiment: Tau aggregate removal in the brain of 5×FAD mice (AT8 antibody staining); assay type: in vivo; conditions: 5 mg/kg, 14 days
Procedure: as §1
In order to assess the neurofibrillary tangle removal effect of HN2210, HN2213, and HN2313 compounds in the brains of Alzheimer's disease model mice, the following test was conducted using 5×FAD-DMSO mice without compound treatment, 5×FAD mice treated with HN2210, HN2213, or HN2313 compounds, and normal mice as controls.
Specifically, AT8 antibody stains hyperphosphorylated Tau protein that constitutes tau aggregates. Therefore, tau aggregates formed in the hippocampus of 5×FAD mouse can be measured using immunostaining with the AT8 antibody. Brain slices were triple-stained with the AT8 antibody, MAP2 which is a neuronal marker, and DAPI to label nuclei, and the dentate gyrus region of the hippocampus was observed under a confocal scanning microscope.

[6] = tested on: mTORC1; experiment: mTORC1 inhibitory activity in primary cultured cerebral neurons (S6K Thr389 phosphorylation); assay type: cell-based, SD mice; conditions: for pThr389-S6K/S6K (% control): 500 nM, 24 hours
[7] = tested on: 5×FAD Alzheimer's disease model mice; experiment: Y-maze test in 5×FAD mice (short-term memory); assay type: in vivo
Procedure: as §1
Specifically, the Y-maze test was performed using a Y-shaped structure maze made of black acrylic with each arm at a […], and light and a camera were installed on the ceiling, and we measured the number of entries for white mice to freely enter each arm while the surroundings were covered with a curtain. This procedure was used to analyze short-term memory. In order to adapt mice to the environment, they were acclimated to the experimental space for 30 minutes. The mice were placed at one end of the maze and allowed to move freely for 12 minutes. The test was conducted with observation periods divided into 8, 10, and 12 minutes. When all four paws of a mice entered an arm, it was considered as fully entered, and the number of entries into each arm without repetition was recorded. The number of entries into each of the three different arms was divided by the total number of entries into all arms minus 2, and expressed as a percentage.

[8] = 5 mg/kg, 14 days / 2 weeks (FIG. 7)
[9] = 5 mg/kg, intraperitoneal, once daily, 14 days (FIG. 5)

O=C1c2cc(F)c(N3CCOCC3)cc2COc2cc3c(cc21)OCO3 [HN2210, 8-(morpholino)-9-fluoro[2]benzoxepino[3,4-f]-1,3-benzodioxol-11(6H)-one]
effect on Akt Ser473 phosphorylation [1]: reduce Akt Ser473 phosphorylation
decrease in AKT Ser473 phosphorylation at 24 hours [1]: 67%
pSer473-AKT/AKT (% control) [1]: 33 % control
decrease in AKT Ser473 phosphorylation from 30 minutes to 6 hours ([1]; from 30 minutes to 6 hours): approximately 50%
passive avoidance latency time, % of the normal control level ([2]; 0.2 mg/kg, 14 days (FIG. 8d)): approximately 56%
passive avoidance latency time, increase compared to 5×FAD-DMSO mice ([2]; 0.2 mg/kg, 14 days (FIG. 8d)): 2.97 fold
passive avoidance latency time, % of the normal control level ([2]; 1 mg/kg, 14 days (FIG. 8d)): ~83%
passive avoidance latency time, increase compared to 5×FAD-DMSO mice ([2]; 1 mg/kg, 14 days (FIG. 8d)): 4.39 fold
passive avoidance latency time, increase compared to 5×FAD-DMSO mice ([2]; 5 mg/kg, 14 days (FIG. 7)): 5.16 fold
passive avoidance latency time, % of the normal control level ([2]; 5 mg/kg, 14 days (FIG. 8d)): ~97%
passive avoidance latency time, increase compared to 5×FAD-DMSO mice ([2]; 5 mg/kg, 14 days (FIG. 8d)): 5.16 fold
passive avoidance latency time, % of the normal control level [2, 8]: approximately 84%
Morris water maze number of target crossings, % of the normal control level ([3]; 0.2 mg/kg, 14 days (FIG. 8b)): approximately 30%
Morris water maze number of target crossings, increase compared to 5×FAD-DMSO mice ([3]; 0.2 mg/kg, 14 days (FIG. 8b)): 2.02 fold
Morris water maze time spent swimming in the target quadrant, % of the normal control level ([3]; 0.2 mg/kg): approximately 87%
Morris water maze time spent swimming in the target quadrant, increase compared to 5×FAD-DMSO mice ([3]; 0.2 mg/kg): 2.14 fold
Morris water maze number of target crossings, % of the normal control level ([3]; 1 mg/kg, 14 days (FIG. 8b)): ~63%
Morris water maze number of target crossings, increase compared to 5×FAD-DMSO mice ([3]; 1 mg/kg, 14 days (FIG. 8b)): 4.27 fold
Morris water maze time spent swimming in the target quadrant, % of the normal control level ([3]; 1 mg/kg): ~85%
Morris water maze time spent swimming in the target quadrant, increase compared to 5×FAD-DMSO mice ([3]; 1 mg/kg): 2.07 fold
Morris water maze number of target crossings, % of the normal control level ([3]; 5 mg/kg, 14 days (FIG. 6a)): approximately 59%
Morris water maze number of target crossings, increase compared to 5×FAD-DMSO mice ([3]; 5 mg/kg, 14 days (FIG. 6a)): 3.96 fold
Morris water maze time spent in the target quadrant, % of the normal control level ([3]; 5 mg/kg): approximately 96%
Morris water maze time spent in the target quadrant, increase compared to 5×FAD-DMSO mice ([3]; 5 mg/kg): 1.74 fold
Morris water maze number of target crossings, % of the normal control level ([3]; 5 mg/kg, 14 days (FIG. 8b)): ~86%
Morris water maze number of target crossings, increase compared to 5×FAD-DMSO mice ([3]; 5 mg/kg, 14 days (FIG. 8b)): 5.84 fold
Morris water maze time spent swimming in the target quadrant, % of the normal control level ([3]; 5 mg/kg): ~96%
Morris water maze time spent swimming in the target quadrant, increase compared to 5×FAD-DMSO mice ([3]; 5 mg/kg): 2.34 fold
reduction of IBA-1 antibody signals in the dentate gyrus compared to the 5×FAD-DMSO group [4]: 50%
reduction of AT8 antibody signals in the dentate gyrus compared to the 5×FAD-DMSO group [5]: 61%
effect on S6K Thr389 phosphorylation ([6]; 500 nM or 100 nM, time course to 24 hours (HN2304: from 6 to 24 hours)): reduced p70S6K Thr389 phosphorylation
pThr389-S6K/S6K (% control) [6]: 23 % control
increase in S6K Thr389 phosphorylation at 3 hours ([6]; at 3 hours): 49%
decrease in S6K Thr389 phosphorylation at 24 hours ([6]; at 24 hours): 77%
Y-maze % alternation, % of the normal control level ([7]; 0.2 mg/kg, 14 days (FIG. 8a)): approximately 85%
Y-maze % alternation, increase compared to 5×FAD-DMSO mice ([7]; 0.2 mg/kg, 14 days (FIG. 8a)): 1.21 fold
Y-maze % alternation, % of the normal control level ([7]; 1 mg/kg, 14 days (FIG. 8a)): ~82%
Y-maze % alternation, increase compared to 5×FAD-DMSO mice ([7]; 1 mg/kg, 14 days (FIG. 8a)): 1.17 fold
Y-maze % alternation, % of the normal control level ([7]; 5 mg/kg, 14 days (FIG. 8a)): ~93%
Y-maze % alternation, increase compared to 5×FAD-DMSO mice ([7]; 5 mg/kg, 14 days (FIG. 8a)): 1.32 fold
Y-maze % alternation, % of the normal control level [7, 9]: 93%
Y-maze % alternation, increase compared to 5×FAD-DMSO mice [7, 9]: 1.25 fold

O=C1c2cc(F)c(NCc3ccccc3)cc2COc2cc3c(cc21)OCO3 [HN2213, 8-(benzylamino)-9-fluoro[2]benzoxepino[3,4-f]-1,3-benzodioxol-11(6H)-one]
selectivity for mTORC2 over mTORC1 [1]: selective mTORC2 inhibitors
effect on Akt Ser473 phosphorylation [1]: reduce Akt Ser473 phosphorylation
decrease in AKT Ser473 phosphorylation at 24 hours [1]: 62%
pSer473-AKT/AKT (% control) [1]: 38 % control
passive avoidance latency time, increase compared to 5×FAD-DMSO mice ([2]; 5 mg/kg, 14 days (FIG. 7)): 4.52 fold
passive avoidance latency time, % of the normal control level [2, 8]: ~74%
Morris water maze number of target crossings, % of the normal control level ([3]; 5 mg/kg, 14 days (FIG. 6a)): ~60%
Morris water maze number of target crossings, increase compared to 5×FAD-DMSO mice ([3]; 5 mg/kg, 14 days (FIG. 6a)): 4 fold
Morris water maze time spent in the target quadrant, % of the normal control level ([3]; 5 mg/kg): ~105%
Morris water maze time spent in the target quadrant, increase compared to 5×FAD-DMSO mice ([3]; 5 mg/kg): 1.91 fold
reduction of IBA-1 antibody signals in the dentate gyrus compared to the 5×FAD-DMSO group [4]: 24%
reduction of AT8 antibody signals in the dentate gyrus compared to the 5×FAD-DMSO group [5]: 59%
pThr389-S6K/S6K (% control) [6]: 137 % control
increase in S6K Thr389 phosphorylation in a time-dependent manner ([6]; time course to 24 hours): 37%
Y-maze % alternation, % of the normal control level [7, 9]: 97%
Y-maze % alternation, increase compared to 5×FAD-DMSO mice [7, 9]: 1.3 fold
